Reference: patent US12059471B2, “Complex” (UNITED IMMUNITY, CO., LTD., priority 2020, dated 2024)
In the oligonucleotide strings, read from the 5' end, every base follows the letter of its sugar. An asterisk marks phosphorothioate; unmarked linkages are phosphodiester. Other units and linkages are bracketed, terminal groups are in braces. A string of capitals states the bases alone. {Chol-TEG} = cholesterol attached through a triethylene glycol linker; d = 2'-deoxy (DNA)

Assay: Complexation evaluation by size exclusion chromatography (SEC/HPLC)
Type: physicochemical
Settings: Chol-CpG 20 uM, SEC, UV 260 nm, PBS
Description: As complexation evaluation of the Chol-CpG (K3)/CHP nanogel complex sample prepared in Test Example 1-5, size exclusion chromatography (SEC) was carried out. The conditions were as follows. Column: G3000SWXL (Tosoh Corporation), 7.8 mm×150 mm, detector: UV (260 nm), column detection temperature: 35° C., injection amount: 20 uL, flow rate: 0.5 mL/min, eluent: PBS (pH: 7.4). Using PBS as an eluent, the eluate was detected at 260 nm, which was an absorption wavelength specific to CpG, which was a nucleic acid adjuvant.
As the complexation evaluation of the Chol-CpG (D35)/CHP nanogel complex sample prepared in Test Example 2-3, size exclusion chromatography (SEC) was carried out in the same manner as in Test Example 1-6.

Chol-CpG (D35): Cholesterol linked to 5′-end of D35 CpG oligonucleotide (SEQ ID NO 2) through a triethylene glycol linker (DNA {Chol-TEG}-dG*dGdTdGdCdAdTdCdGdAdTdGdCdAdGdGdGdG*dG*dG)
complexed ratio with the nanogel (CHP nanogel 40 uM, molar ratio nanogel:Chol-CpG 2:1): ~100%
complexed ratio with the nanogel (molar ratio nanogel:Chol-CpG 1:1): about 90%
